Data as given in US20240150313A1, “TRI-SUBSTITUTED INDOLE BINDING FUNCTION 3 (BF3) COMPOUNDS AND METHODS FOR THEIR USE” (The University of British Columbia, priority 2021, published 2024).
Entries after “also recorded” stand apart in the source; their conditions may differ. One block for each compound: values may come before it.

How the values were obtained:
[1] = test system: AR-mediated PSA expression in LNCaP cells; test: Prostate-Specific Antigen (PSA) assay; type: cell-based, human; details: Table 6
Procedure: Prostate-Specific Antigen (PSA) Assay: The evaluation of PSA levels secreted into the media was performed in parallel to the eGFP assay using the same plates.

[2] = Drug concentration in mouse blood and brain (HPLC, fluorescence); type: in vivo, mice (C57 Black 6)
Procedure: A Halo5 C18 column was used (3.0×50 mm, 5 μm particle size; injection volume: 1 μL) having a mobile phase A: 10% acetonitrile, 90% water, 10 mM NH4HCO3 and a mobile phase B: 80% acetonitrile, 20% water, 10 mM NH4HCO3, with a flow rate: 0.7 mL/min.
The dosing solutions were given to mice (C57 Black 6) by oral gavage at 8 μL per gram of body weight (rounded to the nearest 10 μL), corresponding to 30 mg/kg. After 3 h, the animals were euthanized, and then blood and brain samples were collected and stored at 4° C. until analysis.
Blood samples (clotted) were centrifuged at 9,000 RPM for 2 min×2. Aliquots of the serum (30 μL) were placed in 150 μL micro-centrifuge tubes and acetonitrile (30 μL) were added. The mixture was vortexed briefly and allowed to stand at room temperature for 30 min. Full brains were weighed into 2 mL micro-centrifuge tubes and equal amount of acetonitrile (w/v) was added. […] The samples were centrifuged at 9000 RPM for 2 min×2. The supernatants were transferred to HPLC sample vials with conical inserts, and then analyzed by HPLC.
All compounds were dosed orally to mice, and after 3 hours, the animals were euthanized and blood and brain samples were collected. Drug levels were analyzed by HPLC equipped with a fluorescence detector as described herein.

[3] = Water solubility for dosing formulation; type: physicochemical; details: required concentration 3.75 mg/mL
Procedure: 13822 was water soluble and was formulated as plain aqueous solution at 3.75 mg/mL. […] A formulation screen was conducted to use various pharmaceutically acceptable surfactants and additives to develop a low organic solution or metastable heterogeneous suspension suitable for oral dosing.

[4] = molecular target: T1, androgen receptor (AR) transcriptional activity (Homo sapiens, UniProt P10275, T878A); test: eGFP cellular AR transcription assay; details: for AR inhibition activity: eGFP assay; for IC50-eGFP: Table 4, substitution on quinoline moiety of VPC-13566
T1 sequence (P10275 1-920 T878A): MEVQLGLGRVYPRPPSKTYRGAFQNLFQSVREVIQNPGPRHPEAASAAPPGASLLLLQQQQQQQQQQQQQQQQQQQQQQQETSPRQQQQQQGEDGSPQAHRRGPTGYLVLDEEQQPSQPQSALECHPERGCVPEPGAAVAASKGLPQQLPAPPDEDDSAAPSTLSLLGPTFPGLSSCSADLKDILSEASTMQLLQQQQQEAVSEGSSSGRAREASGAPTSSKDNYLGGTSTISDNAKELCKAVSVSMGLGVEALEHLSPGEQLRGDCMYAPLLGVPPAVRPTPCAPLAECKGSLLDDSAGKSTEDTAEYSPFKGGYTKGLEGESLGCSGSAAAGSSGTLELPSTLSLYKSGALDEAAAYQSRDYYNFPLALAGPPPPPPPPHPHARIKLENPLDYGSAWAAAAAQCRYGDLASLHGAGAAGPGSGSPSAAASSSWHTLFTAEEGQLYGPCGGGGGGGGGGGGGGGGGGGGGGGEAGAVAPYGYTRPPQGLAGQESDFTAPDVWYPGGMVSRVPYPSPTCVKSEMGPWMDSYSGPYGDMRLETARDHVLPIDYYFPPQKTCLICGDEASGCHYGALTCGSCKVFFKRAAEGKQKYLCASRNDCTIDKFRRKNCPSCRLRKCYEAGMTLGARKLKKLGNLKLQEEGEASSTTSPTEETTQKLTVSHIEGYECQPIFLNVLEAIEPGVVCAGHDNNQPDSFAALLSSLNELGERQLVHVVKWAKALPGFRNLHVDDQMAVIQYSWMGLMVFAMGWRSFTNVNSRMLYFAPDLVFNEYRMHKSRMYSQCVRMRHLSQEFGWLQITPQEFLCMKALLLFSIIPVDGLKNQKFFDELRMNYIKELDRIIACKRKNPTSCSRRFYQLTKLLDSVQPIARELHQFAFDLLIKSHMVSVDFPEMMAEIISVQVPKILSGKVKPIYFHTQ

[5] = test system: LNCaP cells; test: Cell viability / proliferation assay (Prestoblue), LNCaP; type: cell-based, human; details: 0.1 nM R1881
Procedure: (§1) After 3 days of treatment, cell density was measured using the Prestoblue™ assay (Thermo Fisher Scientific™).

[6] = test system: PC3 (AR negative) cells; test: Cell viability / proliferation assay (Prestoblue), PC3; type: cell-based, human
Procedure: as §1

[7] = Microsomal stability (half-life); type: in vitro ADME, human; details: for half-life: Table 6
[8] = test system: androgen-mediated transcription in LNCaP cells; test: RNA-seq / GSEA on LNCaP cells; type: cell-based, human; details: for GSEA normalized enrichment score (canonical AR genes): 10 nM DHT; for differentially expressed genes / downregulated genes / upregulated genes: compared to vehicle; for p53 pathway: with androgen
[9] = test system: chromatin binding of AR to enhancers near KLK3 and FKBP5; test: ChIP-PCR of AR binding sites; type: cell-based
[10] = test system: nuclear accumulation of exogenous (293T) or endogenous (LNCaP) AR; test: AR nuclear translocation; type: cell-based; details: 293T (exogenous) or LNCaP (endogenous), DHT
Excerpt: B) Heatmap of genes from the GSEA-MySigDB “Hallmark androgen response”. […] D) Nuclear translocation of exogenous (AR-eGFP in 293T) or endogenous (LNCaP) AR following treatment with DHT.

[11] = molecular target: androgen binding site (ABS) of recombinant wild type LBD (Rattus norvegicus, UniProt P15207)
[12] = test system: AR protein-protein interactions on chromatin; test: RIME of the AR interactome; details: DHT treated cells
[13] = test system: LNCaP xenograft castration-resistant mouse model; test: Castration-resistant LNCaP xenograft: serum PSA and tumour growth; type: in vivo; details: oral treatment, listed as 13789 prodrug
Procedure: Assessment of Prostate […] Antigen and Tumour Growth for Castration-resistant LNCaP Xenografts: 6-8-Week-old nude mice (Harlan Sprague-Dawley) weighing 25-31 g were subcutaneously inoculated with LNCaP cells ([…] in BD Matrigel, BD Biosciences) at the posterior dorsal site. Tumor volume, body weight, and serum PSA levels were measured weekly. Mice were castrated when serum PSA levels reached 50 ng/ml. […] Calipers were used to measure the three perpendicular axes of each tumor to calculate the tumor volume.

[14] = Conversion of prodrug to parent drug in tissue homogenate; type: in vitro ADME; details: mouse small intestine tissue homogenate
[15] = human, microsomes, read-out: Half-life

androgen binding site (ABS) of recombinant wild type LBD, sequence (P15207 651-882 limits assumed): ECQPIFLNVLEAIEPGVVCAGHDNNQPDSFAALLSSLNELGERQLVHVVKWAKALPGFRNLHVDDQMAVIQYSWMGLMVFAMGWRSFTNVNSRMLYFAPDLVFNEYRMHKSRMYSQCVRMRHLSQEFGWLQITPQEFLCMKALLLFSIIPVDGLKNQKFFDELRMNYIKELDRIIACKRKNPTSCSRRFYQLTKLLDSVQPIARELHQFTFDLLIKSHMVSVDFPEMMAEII

IC50 [1]: > 10000 nM
Compound: 2-(2-(5,6,7-Trifluoro-1H-indol-3-yl)quinolin-5-yl)thiazole [Compound 13801]

IC50 ([1]; Homo sapiens, LNCaP): > 10000 nM
IC50 [4]: > 10000 nM
Compound: Fc1cc2c(-c3ccc4c(-c5cnco5)cccc4n3)c[nH]c2c(F)c1F [Compound 13794]

IC50 ([1]; Homo sapiens, LNCaP): 230 nM
microsome stability [7]: good microsome stability
half-life [7, 15]: 4.35 h
Compound: O=C(NC1CC1)c1cccc2nc(-c3c[nH]c4c(F)c(F)c(F)cc34)ccc12 [Compound 13795, N-Cyclopropyl-2-(5,6,7-trifluoro-1H-indol-3-yl)quinoline-5-carboxamide]

IC50 ([1]; Homo sapiens, LNCaP): 950 nM
IC50 [4]: 5480 nM
Compound: CNC(=O)c1c(F)ccc2nc(-c3c[nH]c4c(F)c(F)c(F)cc34)ccc12 [Compound 13796]

IC50 ([1]; Homo sapiens, LNCaP): 1500 nM
IC50 [4]: 1980 nM
Compound: O=C(NC1CC1)c1c(F)ccc2nc(-c3c[nH]c4c(F)c(F)c(F)cc34)ccc12 [Compound 13797]

IC50 ([1]; Homo sapiens, LNCaP): 750 nM
IC50 [4]: 560 nM
Compound: Fc1cc2c(-c3ccc4c(-c5cncs5)c(F)ccc4n3)c[nH]c2c(F)c1F [Compound 13799]

IC50 ([1]; Homo sapiens, LNCaP): > 10000 nM
IC50 [4]: > 10000 nM
Compound: CC(C)NC(=O)c1c(F)ccc2nc(-c3c[nH]c4c(F)c(F)c(F)cc34)ccc12 [Compound 13802]

IC50 [4]: > 10000 nM
Compound: CN(C)C(=O)c1c(F)ccc2nc(-c3c[nH]c4c(F)c(F)c(F)cc34)ccc12 [Compound 13803]

IC50 ([1]; Homo sapiens, LNCaP): 160 nM
microsome stability [7]: good microsome stability
Compound: O=C(NCC1CC1)c1cccc2nc(-c3c[nH]c4c(F)c(F)c(F)cc34)ccc12 [Compound 13807, N-(Cyclopropylmethyl)-2-(5,6,7-trifluoro-1H-indol-3-yl)quinoline-5-carboxamide]

microsome stability [7]: good microsome stability
Compound: O=C(NCC(F)F)c1cccc2nc(-c3c[nH]c4c(F)c(F)c(F)cc34)ccc12 [Compound 13808, N-(2,2-Difluoroethyl)-2-(5,6,7-trifluoro-1H-indol-3-yl)quinoline-5-carboxamide]

half-life [14]: ~2 h
solubility in water [3]: water soluble
Compound: CC(C)NC(=O)c1cccc2nc(-c3cn(COP(=O)(O)O)c4c(F)c(F)c(F)cc34)ccc12 [Compound 13822]
tumour volume / growth in xenograft ([13]; up to 5 weeks): reduces tumor volume; also recorded: inhibited tumour growth to levels comparable with enzalutamide treatment
serum PSA production in xenograft [13]: inhibits PSA production; also recorded: reducing serum PSA levels

Further lines, the compound ahead of its results:

Compound: Cc1cccc2c(-c3ccc4ccccc4n3)c[nH]c12 [Compound 13566, 2-(7-Methyl-1H-indol-3-yl)quinoline]
blood concentration level ([2]; compared with 13789): much lower
penetration of the blood-brain-barrier ([2]; mice, 3 hour time point): significantly penetrated the blood-brain-barrier
solubility in water [3]: not soluble in water at the required concentration

Compound: Cc1ccc2c(-c3ccc4ccccc4n3)c[nH]c2c1F [Compound 13619]
AR inhibition activity [4]: weaker or even inactive

Compound: Cc1cccc2c(-c3ccc4c(O)cccc4n3)c[nH]c12 [Compound 13620]
IC50-eGFP [4]: inactive

Compound: Cc1cccc2c(-c3ccc4c(F)cccc4n3)c[nH]c12 [Compound 13623]
IC50-eGFP [4]: inactive

Compound: Fc1cc(Cl)cc2c(-c3ccc4ccccc4n3)c[nH]c12 [Compound 13641]
AR inhibition activity [4]: weaker or even inactive

Compound: CNC(=O)c1cccc2nc(-c3c[nH]c4c(F)c(F)c(F)cc34)ccc12 [Compound 13719]
IC50 ([1]; Homo sapiens, LNCaP): 130 nM

Compound: CC(C)NC(=O)c1cccc2nc(-c3c[nH]c4c(F)c(F)c(F)cc34)ccc12 [Compound 13789, N-isopropyl-2-(5,6,7-trifluoro-1H-indol-3-yl)quinoline-5-carboxamide]
IC50 ([1]; Homo sapiens, LNCaP): 80 nM
effect on growth of LNCaP cells [5]: concentration-dependent inhibition of growth; also recorded: significant decrease in the growth
effect on growth of PC3 cells [6]: not with AR-independent PC3 cells; also recorded: did not exhibit any inhibitory effect
microsome stability [7]: good microsome stability
half-life [7]: 206 (206.26)
metabolic stability judged from polar peaks in chromatograms ([2]; serum and brain samples): metabolically more stable
GSEA normalized enrichment score (canonical AR genes) [8]: −3.33
differentially expressed genes [8]: 1514 genes
downregulated genes [8]: 967
upregulated genes [8]: 547
p53 pathway [8]: upregulation of the p53 pathway
chromatin binding of AR [9]: significantly reduced the chromatin binding of AR
nuclear accumulation of AR [10]: only marginally affected nuclear accumulation
% Disp. @ 1 uM (DHT displacement from the ABS site) ([11]; 1 uM): 4 ± 3.8%
ABS inhibition ([11]; 10 μM): no significant ABS inhibition
DHT displacement from ABS ([11]; various concentrations): Very little displacement
AR protein-protein interactions disrupted (of 112 enriched) [12]: 34

Compound: CN(C)C(=O)c1cccc2nc(-c3c[nH]c4c(F)c(F)c(F)cc34)ccc12 [Compound 13791]
IC50 ([1]; Homo sapiens, LNCaP): > 10000 nM
IC50 [4]: > 10000 nM

Compound: Fc1cc2c(-c3ccc4c(-c5cncs5)cccc4n3)c[nH]c2c(F)c1F [Compound 13793, 5-(2-(5,6,7-Trifluoro-1H-indol-3-yl)quinolin-5-yl)thiazole]
IC50 ([1]; Homo sapiens, LNCaP): 330 nM
half-life [7, 15]: 1.73 h

Compound: OC(c1cccc2nc(-c3c[nH]c4c(F)c(F)c(F)cc34)ccc12)C(F)(F)F (stereo not drawn) [Compound 13804]
IC50 [4]: 32000 nM

Compound: CNC(=O)c1ccc(N2C(=S)N(c3ccc(C#N)c(C(F)(F)F)c3)C(=O)C2(C)C)cc1F [Enzalutamide, reference compound]
GSEA normalized enrichment score (canonical AR genes) [8]: −2.31
differentially expressed genes [8]: 586 genes
downregulated genes [8]: 372
upregulated genes [8]: 214
p53 pathway [8]: not observed
